Reference: US6395760B1, “Pesticidal 1-arylpyrazoles” (Rhone-Poulenc Inc., priority 1997, dated 2002)

Columns and labels:
Set-up in all cases: key: ‘X’ means highly active; ‘+’ means moderately active; ‘−’ means low activity
Aphis gossypii = test: Soil drench test (systemic activity), aphids on cotton plants; assay type: in vivo; settings: 10.0 ppm soil concentration by weight, aphid counts at 5 DAT vs untreated control
Text: (§1) The Soil Drench Test (Systemic Activity) Cotton and sorghum plants were established in pots. One day prior to treatment, each pot was infested with about 25 aphids of a mixed population. Cotton plants were infested with aphids and sorghum plants were infested with the greenbug. The selected compound of formula (I) was applied to the soil surface in a dilution that delivered the equivalent of 10.0 ppm soil concentration by weight. Aphid counts were obtained at 5 DAT (=days after treatment). The number of aphids on the treated plants was compared to the number of those on the untreated control plants.

Schizaphis graminum = test: Soil drench test (systemic activity), greenbug on sorghum plants; assay type: in vivo; settings: 10.0 ppm soil concentration by weight, counts at 5 DAT vs untreated control
Text: as §1

Musca domestica = test: Housefly bait/contact test; assay type: in vivo; settings: 50 ppm in sugar water bait solution, adult houseflies, mortality after 24 hours
Text: The Housefly Bait/Contact Test About 25 four to six-day-old adult houseflies were anesthetized and placed in a cage with a sugar water bait solution containing the compound. The concentration of the selected compound of formula (I) in the bait solution was 50 ppm.

A. gossypii = test: Foliar application (contact test) with aphids; assay type: in vivo, Aphis gossypii; settings: 100 ppm formulation sprayed to runoff on aphid-infested cotton plants, dead aphids counted three days after treatment
Text: Foliar Application (Contact Test) with Aphids Aphid-infested cotton plants were placed on a revolving turntable, and sprayed to runoff with a 100 ppm formulation of the selected compound of formula (I). The treated, A. gossypii-infested plants were held for three days after treatment, after which the dead aphids were counted.

CCNc1c(S(C)(=O)=O)c(C2(C)OCCO2)nn1-c1c(Cl)cc(C(F)(F)F)cc1Cl [Compound 34]
X: Systemic activity on aphids (Aphis gossypii) | Systemic activity on greenbugs (Schizaphis graminum) | Activity on house flies by contact (Musca domestica) | Foliar activity on aphids (A. gossypii)

CNc1c(S(C)(=O)=O)c(C2(C)OCCO2)nn1-c1c(Cl)cc(C(F)(F)F)cc1Cl [Compound 35]
X: Systemic activity on aphids (Aphis gossypii) | Systemic activity on greenbugs (Schizaphis graminum) | Activity on house flies by contact (Musca domestica) | Foliar activity on aphids (A. gossypii)
